From publication PMC4444124, “The Stapled AKAP Disruptor Peptide STAD-2 Displays Antimalarial Activity through a PKA-Independent Mechanism” (PLoS ONE, 2015)
Values joined by “and” are separate entries in the source; they are usually repeats but may differ in a detail not shown here. Equal entries are not always repeated.

What was measured:
[1] = tested on: Plasmodium falciparum iRBC; test: Parasite viability assay (parasitemia by flow cytometry, Giemsa blood smears); type: cell-based; details: for morphology of treated iRBC by blood smear: STAD-2 1 μM, H89 30 μM, light microscopy at 48 hours post-treatment, versus DMSO
Procedure: 25 μL were removed from each well every 24 hours post-treatment, and samples were stained with Hoechst 33342 and analyzed by flow cytometry. Blood smears were made every 24 hours, fixed with methanol, and stained with Giemsa for analysis by light microscopy. Images were acquired using a Nikon Eclipse E400 microscope fitted with a Nikon Digital Sight DS-5M-L1 camera (Nikon Instruments Inc.).

[2] = tested on: Plasmodium falciparum blood stage parasites; test: Dose-response curves (parasitemia by Hoechst flow cytometry); type: cell-based
Procedure: Synchronous ring-stage or late-stage iRBC at <0.5% parasitemia were brought up to 4% hematocrit in complete culture medium and transferred to a 24-well tissue culture plate in 1 mL aliquots. […] 25 μL were removed from each well at 0, 24, 48, and 72 hours, stained with 100 μL 2 μg/mL Hoechst 33342 for 10 minutes at 37°C, and analyzed by flow cytometry as described above. IC50 values were determined according to parasitemia at 24 hours post-treatment. Parasitemia was defined as the percent of Hoechst-positive RBCs as measured by flow cytometry.

[3] = molecular target: T1, cytoadherence linked asexual protein 3.1, or CLAG3 (Plasmodium falciparum, UniProt O77310); test: Immunoprecipitation/mass spectrometry with biotin-conjugated peptide; type: binding; details: 3D7 parasite supernatant, 16 hours at 4°C, streptavidin beads, MS-MS (S2 Table)
T1 construct: 4 X 10^8 3D7 parasites were lysed with cold 0.04% saponin in PBS; endogenous in cells; host or cells: P. falciparum 3D7 parasites (parasite supernatant of lysate)
Procedure: 4 X 10^8 3D7 parasites were lysed with cold 0.04% saponin in PBS for 10 minutes. The supernatant was, subsequently, separated from the pellet by centrifugation at 4000 rcf for 10 minutes at 4°C. This supernatant consisted of the RBC cytoplasm and parasite exported proteins (termed host supernatant). The pellet consisted of parasite cells; these were further lysed with […]. The soluble fraction (termed parasite supernatant) of the parasite cells was separated from the insoluble fraction by centrifuging the parasite lysate at 4000 rcf for 10 minutes at 4°C. The host supernatant and the parasite supernatant were each incubated with biotin-conjugated STAD-2 or STAD-2 scramble for 16 hours at 4°C. Peptide-protein complexes were precipitated using streptavidin-coupled Dynabeads (Life Technologies). Dynabeads were subsequently washed four times with 1X PBS, and the precipitated peptide-protein complexes were solubilized in SDS-PAGE sample buffer. Proteins were, then, fractionated on 10% SDS-PAGE, excised, and identified by MS-MS (Proteomics and Mass Spectrometry Core Facility, University of Georgia).
Sequences identified by MS-MS were searched against the NCBI non-redundant protein databases for Plasmodium falciparum (NCBI taxonomy #5833) and human (#9606)/Plasmodium (#5820) and analyzed by Mascot. Results from both database searches were cross-referenced and compiled. […]

[4] = tested on: Plasmodium falciparum infected red blood cells (iRBC); test: STAD-2 permeability: uptake of FITC-conjugated peptides by flow cytometry; type: cell-based
Procedure: (§2) Synchronous ring-stage or late-stage infected red blood cells (iRBC) and uninfected red blood cells (uRBC) were brought up to 4% hematocrit in complete culture medium. FITC-conjugated peptides were added to a final concentration of 1 μM, and cultures were incubated for 6 hours at 37°C under standard gas conditions. Following incubation, 25 μL cell mixture was removed and treated with 100 μL 2 μg/mL Hoechst 33342 for 10 minutes at 37°C. Cells were subsequently washed once in 1 mL 1X PBS, resuspended in 300 μL 1X PBS, and analyzed for Hoechst and FITC staining on a Beckman Coulter CyAn flow cytometer. 500,000 events were collected at a rate of 15,000–20,000 events per second. Data was analyzed using FlowJo X single cell analysis software (FlowJo LLC).

HsPKA-RII = test: Immunofluorescence assay, colocalization with PKA regulatory subunit; type: cell-based, H. sapiens; details: late-stage iRBC, 1 μM FITC-conjugated peptide, 2 hours, anti-HsPKA RII antibody
Procedure: (§1) A culture of primarily late-stage iRBC was incubated with STAD-2 or DMSO as described above. Following incubation, 50 μL of cell mixture was removed and washed twice with 1 mL 1X PBS. Cells were then resuspended in 200 μL 4% paraformaldehyde/0.0075% glutaraldehyde and transferred to a CC2 glass chamber slide (Nalge Nunc International). Cells were fixed for 30 minutes at room temperature and gently washed twice with 300 μL 1X PBS. Fixed cells were subsequently permeabilized with 0.1% Triton X-100/PBS for 10 minutes and washed. Cells were then treated with […] sodium borohydride/PBS for 10 minutes to reduce any free aldehyde groups, washed with 1X PBS, and blocked for 1 hour at room temperature with 3% BSA/PBS. Following blocking, cells were brought up in 200 μL primary antibody and left shaking at 4°C overnight. The following morning, cells were washed three times, for 10 minutes each, to remove excess primary antibody and brought up in 200 μL secondary antibody for 1 hour at room temperature. After washing, cells were counterstained with 200 μL 0.5 μg/mL Hoechst 33342 for 3 minutes at room temperature and washed a final time before removing slide chambers, mounting a coverslip with Fluoro-Gel, and sealing. Rat anti-PfPKA-R was generously donated by Gordon Langsley (Institut Cochin) and diluted 1:300 in 3% BSA/PBS. Goat anti-HsPKA-RII (Abcam) was diluted to 10 μg/mL in 3% BSA/PBS. […]

[5] = tested on: uninfected red blood cells (uRBC); details: 1 μM FITC-conjugated peptide, 6 hours, 37°C, 4% hematocrit, Hoechst/FITC flow cytometry
Procedure: as §2

PfPKA-R = test: Immunofluorescence assay, colocalization with PKA regulatory subunit; type: cell-based, Plasmodium falciparum; details: late-stage iRBC, 1 μM FITC-conjugated peptide, 2 hours, anti-PfPKA R antibody
Procedure: as §1

late-stage iRBC [6] = tested on: late-stage iRBC
Procedure: Late-stage cultures were brought up to 4% hematocrit in complete culture medium and transferred to a 48-well tissue culture plate at 250 μL per well. Plates were spun at 330 rcf for 5 minutes, the medium was aspirated, and cultures were resuspended in either 250 μL complete culture medium or 200 μM furosemide in complete culture medium for 10 minutes at 37°C. Plates were again spun at 330 rcf, aspirated, and resuspended in 250 μL 1 μM STAD-2, 5% D-Sorbitol, 200 μM furosemide, 130 mM glycerol, 6 μM AgNO3, or a combination of the aforementioned for 10 minutes or 2 hours. Following incubation, 25 μL were removed, stained, and analyzed by flow cytometry as described above. Ten-minute time points served as controls for 5% D-Sorbitol and furosemide activities while effects on STAD-2 uptake were determined using 2-hour time points.

late-stage iRBC [7] = test: Hemolysis (oxyhemoglobin absorbance at 415 nm); type: cell-based, Plasmodium falciparum; details: late-stage iRBC diluted in uRBC, 0 to 8% parasitemia, 1 μM, 6 hours, versus DMSO, n = 4
Procedure: Synchronous late-stage iRBC were mixed with uRBC in order to achieve a series of samples with stepwise decreasing parasitemia. […] The plate was incubated at 37°C under standard gas conditions for 6 hours. Following incubation, all samples were transferred to Eppendorf tubes and centrifuged at 700 rcf for 5 minutes to pellet cells. 100 μL of supernatant was removed from each tube and transferred to a 96-well, flat-bottom tissue culture plate. Oxyhemoglobin absorbance was measured at 415 nm using a SpectraMax Plus microplate spectrophotometer with SoftMax Pro 5.4 software (Molecular Devices, LLC).

T1 sequence (O77310 25-1417): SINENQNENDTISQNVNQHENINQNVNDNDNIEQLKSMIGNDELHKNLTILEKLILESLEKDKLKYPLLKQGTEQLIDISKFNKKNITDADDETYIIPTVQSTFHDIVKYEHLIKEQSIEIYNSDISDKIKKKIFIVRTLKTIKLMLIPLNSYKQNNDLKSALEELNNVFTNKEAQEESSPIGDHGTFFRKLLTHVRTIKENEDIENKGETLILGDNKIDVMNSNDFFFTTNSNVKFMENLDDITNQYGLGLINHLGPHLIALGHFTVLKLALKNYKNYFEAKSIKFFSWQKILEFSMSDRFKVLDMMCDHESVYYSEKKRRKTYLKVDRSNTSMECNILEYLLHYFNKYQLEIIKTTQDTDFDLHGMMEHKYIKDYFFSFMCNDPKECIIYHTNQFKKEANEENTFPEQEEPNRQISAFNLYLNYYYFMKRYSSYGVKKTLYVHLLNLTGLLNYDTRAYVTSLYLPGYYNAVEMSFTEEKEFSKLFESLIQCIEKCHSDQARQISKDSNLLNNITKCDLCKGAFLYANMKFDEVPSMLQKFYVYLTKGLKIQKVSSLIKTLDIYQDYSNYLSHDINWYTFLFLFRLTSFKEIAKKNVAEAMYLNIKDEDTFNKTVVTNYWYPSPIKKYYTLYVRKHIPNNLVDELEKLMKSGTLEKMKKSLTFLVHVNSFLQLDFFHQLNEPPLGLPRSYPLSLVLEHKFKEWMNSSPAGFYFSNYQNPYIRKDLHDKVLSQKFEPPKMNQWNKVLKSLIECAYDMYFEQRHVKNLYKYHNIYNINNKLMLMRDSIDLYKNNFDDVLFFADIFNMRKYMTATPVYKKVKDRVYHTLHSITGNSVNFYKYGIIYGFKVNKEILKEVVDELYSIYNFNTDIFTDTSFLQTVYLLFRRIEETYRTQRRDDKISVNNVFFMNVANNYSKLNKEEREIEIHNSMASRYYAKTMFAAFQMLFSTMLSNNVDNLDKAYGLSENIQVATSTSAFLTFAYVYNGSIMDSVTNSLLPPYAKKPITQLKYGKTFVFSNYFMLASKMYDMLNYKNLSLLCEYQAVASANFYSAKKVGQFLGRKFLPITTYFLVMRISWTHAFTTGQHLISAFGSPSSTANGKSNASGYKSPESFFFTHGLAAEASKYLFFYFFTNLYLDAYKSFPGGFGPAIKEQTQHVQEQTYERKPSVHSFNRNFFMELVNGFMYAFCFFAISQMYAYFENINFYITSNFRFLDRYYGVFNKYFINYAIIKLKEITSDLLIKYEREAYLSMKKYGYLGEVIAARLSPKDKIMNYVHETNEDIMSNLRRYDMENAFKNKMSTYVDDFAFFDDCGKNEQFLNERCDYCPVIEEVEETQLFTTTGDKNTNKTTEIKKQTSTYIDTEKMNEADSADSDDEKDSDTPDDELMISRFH

O=S(=O)(NCCNC/C=C/c1ccc(Br)cc1)c1cccc2cnccc12 [H89]
morphology of treated iRBC by blood smear ([1]; late-stage iRBC): clear morphological changes including the notable absence of a digestive vacuole
IC50 ([2]; late-stage CS2 parasites, serial dilutions 100-0.78 μM, 24 hours, Hoechst flow cytometry, n = 2 (S5 Fig), read-out: H89 in vitro IC50): 30 µM and ~30 µM

CC(C)C[C@H](NC(=O)[C@H](C)NC(=O)[C@]1(C)CCCC=CCCC[C@](C)(NC(=O)[C@H](CO)NC(=O)[C@@H](NC(=O)[C@H](CC(C)C)NC(=O)[C@H](Cc2ccccc2)NC(=O)[C@H](CCCCN)NC(=O)[C@H](C)NC(=O)[C@H](CC(C)C)NC(=O)[C@H](CCCCN)NC(=O)[C@H](CCCCN)NC(=O)CCNC(=S)Nc2ccc3c(c2)C(=O)OC32c3ccc(O)cc3Oc3cc(O)ccc32)C(C)C)C(=O)N[C@@H](C)C(=O)N[C@@H](CC(C)C)C(=O)N[C@@H](CCCCN)C(=O)N1)C(=O)N[C@@H](CCCCN)C(N)=O [STAD-2]
association with CLAG3 by IP/MS [3]: showed association
uptake by synchronous ring-stage and late-stage iRBC ([4]; 1 μM FITC-conjugated peptide, 6 hours, flow cytometry, 2way ANOVA p<0.001, n = 3-6): significantly increased uptake
permeability in iRBC ([4]; CS2 iRBC, 1 μM FITC-conjugated peptide, 6 hours, 37°C, 4% hematocrit, Hoechst/FITC flow cytometry): significant permeability
permeability to iRBC among stapled peptides (median fluorescence intensity) ([4]; iRBC, 1 μM stapled FITC-conjugated peptides, 6 hours, flow cytometry, n = 2-6 (Fig 7)): clearly permeable
permeability across parasite strains ([4]; late-stage CS2, Dd2, 3D7, Hb3 iRBC, 1 μM FITC-conjugated peptide, 2 hours, flow cytometry, n = 2 (S1 Fig)): comparable levels of permeability
time to near-maximum levels of uptake ([4]; late-stage iRBC, 1 μM FITC-conjugated peptide for 1, 2, 3 or 6 hours, flow cytometry, n = 3 (S2 Fig)): ≤ 3 h
colocalization with HsPKA-RII (HsPKA-RII): did not definitively colocalize
permeability in uRBC [5]: only a nominal amount
colocalization with PfPKA-R (PfPKA-R): did not definitively colocalize
viability of P. falciparum strains ([1]; late-stage CS2, 3D7, Dd2, Hb3, 1 μM FITC-conjugated peptide, parasitemia at 24, 48, 72 hours, n = 3 (S3 Fig)): reduced viability in CS2, Dd2, and Hb3 strains
parasitemia 6 hours post-treatment ([1]; late-stage iRBC, 1 μM FITC-conjugated peptide, 6 hours, flow cytometry, n = 7 (S4 Fig)): Reduction in parasitemia was evident
morphology of treated iRBC by blood smear ([1]; late-stage iRBC): did not differ morphologically from DMSO controls
parasitemia relative to DMSO controls over 72 hours ([1]; synchronous ring- and late-stage iRBC, 1 μM, flow cytometry every 24 hours for 72 hours, significant by 48 hours (p<0.001), n = 3): significantly decreased parasitemias
STAD-2 uptake, co-incubation with AgNO3 (late-stage iRBC [6]; 1 μM STAD-2 + 6 μM AgNO3 (AQP1 inhibitor), 2 hours, flow cytometry, n = 2): no apparent change in STAD-2 uptake
STAD-2 uptake, co-treatment with furosemide alone (late-stage iRBC [6]; 1 μM STAD-2 + 200 μM furosemide (PSAC inhibitor), 2 hours, pre-treatment with medium, flow cytometry, n = 3): no discernible effect on STAD-2 uptake
STAD-2 uptake, co-incubation with glycerol (late-stage iRBC [6]; 1 μM STAD-2 + 130 mM glycerol (AQP3 solute), 2 hours, flow cytometry, n = 2): no apparent change in STAD-2 uptake
STAD-2 uptake, co-incubation with D-Sorbitol (late-stage iRBC [6]; 1 μM STAD-2 + 5% D-Sorbitol (PSAC solute), 2 hours, flow cytometry, n = 2): slight reduction of STAD-2 uptake
STAD-2 uptake, furosemide pre-incubation then co-treatment (late-stage iRBC [6]; 200 μM furosemide 10 minutes pre-incubation, then 1 μM STAD-2 + 200 μM furosemide 2 hours, p = 0.0557, n = 3): consistent but statistically insignificant decrease
iRBC lysis (oxyhemoglobin A415 in medium) (late-stage iRBC [7]): significantly greater than controls
effect on parasitemia relative to DMSO-treated controls, dose-response ([2]; ring- and late-stage iRBC, 0, 0.5, 1, 2, 5 μM, 24 hours post-treatment, n = 3): concentration-dependent decrease in parasitemia
